In publication PMC4193996 (Journal of Experimental & Clinical Cancer Research : CR, 2014):

Columns and labels:
[1] = test system: h-Tel quadruplex DNA, 5'-biotin-d[AG3(T2AG3)3] (DNA, G4) AGGGTTAGGGTTAGGGTTAGGG; test: SPR
[2] = test system: hairpin duplex, 5'-biotin-CGA3T3C(CT)2GA3T3CG (DNA, hairpin) CGAAATTTCCTCTGAAATTTCG; test: SPR
[3] = test system: human 'normal' lung WI-38 cells; test: MTT proliferation assay, WI-38; format: cell-based; details: for Ratio PMX WI38/HT29: GI50 WI-38 / GI50 HT-29; for GI50: Homo sapiens, WI-38, MTT, 96 hours
Protocol: (§1) Normal WI-38 diploid human lung fibroblasts and the human colorectal adenocarcinoma HT29 cells were obtained from American Type Culture Collection (Manassas, VA, USA). BJ fibroblasts expressing hTERT and SV40 early region (BJ-EHLT) were obtained as previously reported. Cells were grown in Dulbecco Modified Eagle Medium (D-MEM, Invitrogen Carlsbad, CA, USA) supplemented with 10% fetal calf serum, 2 mM L-glutamin and antibiotics.
(§2) MTT (3-(4,5-Dimethylthiazol-2-yl)-2,5-diphenyltetrazolium Bromide) assay was performed in treated and untreated cells for 96 hours. Cells were incubated with MTT solution (Sigma-Aldrich), and the purple formazan crystals were dissolved in isopropanol. Optical densities (OD) at 540 nm was determined on microplate reader.
(§3) Firstly, we investigated if they were able to efficiently promote growth inhibition of tumor cells without affecting the survival of normal cells in vitro. In Table 1 we report for each compound the concentration causing 50% of growth inhibition (GI50) calculated by performing a proliferation assay in the human colon cancer cell line HT-29 or in the human ‘normal’ lung WI-38 cells. […] On the basis of results described so far, we decided to exclude from the further analysis ligand 10 for its high value of hERG inhibition (95%) (Table 1).

[4] = test system: alternating hairpin duplex sequence 5'-biotin-CGA3T3C(CT)2GA3T3CG; test: SPR binding to duplex DNA
Protocol: (§4) Oligonucleotides 5’-biotin-d [AG3 (T2AG3)3] quadruplex and 5’-biotin-CGA3T3C(CT)2GA3T3CG were purchased from Midland Certified Reagent Company (Midland, TX). Purification of DNA, preparation of solutions, collection of data, and analysis of results were conducted according to methods adopted in an earlier study.
(§5) This technique takes advantage of the refractive index change elicits by the binding of the drug with the h-Tel quadruplex DNA sequence 5’-d[AGGG(TTAGGG)3]-3’ or an alternating hairpin duplex sequence immobilized on a sensor chip surface.

[5] = test system: BJ-EHLT fibroblasts; test: γ-H2AX/PCNA co-immunostaining (replication-dependent DNA damage); format: cell-based, human; details: 24 hrs
Protocol: (§6) Cells were fixed in 2% formaldehyde and permeabilized in 0.25% Triton X100 in PBS for 5 min at room temperature. For immunolabeling, cells were incubated with primary antibody, then washed in PBS and incubated with the secondary antibodies. The following primary antibodies were used: pAb and mAb anti-TRF1(Abcam Ltd.; Cambridge UK); mAb (Upstate, Lake Placid, NY) and pAb anti-γH2AX (Abcam); mAb anti-PCNA (Sigma Chemicals, Milano, Italy). The following secondary antibody were used: TRITC conjugated Goat anti Rabbit, FITC conjugated Goat anti Mouse (Jackson ImmunoResearch Europe Ltd., Suffolk, UK). Fluorescence signals were recorded by using a Leica DMIRE2 microscope equipped with a Leica DFC 350FX camera and elaborated by a Leica FW4000 deconvolution software (Leica, Solms, Germany). This system permits to focus single planes inside the cell generating 3D highresolution images. For quantitative analysis of γH2AX positivity, 200 cells on triplicate slices were scored. For TIFs analysis, in each nucleus a single plane was analyzed and at least 50 nuclei per sample were scored.
Figure 2 DNA damage activation at telomeres. BJ-EHLT fibroblasts were treated for 24 hrs with compound 1 and the indicated ligands at the doses 0.1 (light-grey bars) and 0.5 μM (dark-grey bars). […] Cells with four or more γ-H2AX/TRF1 foci were scored as TIF positive. […]

[6] = biological target: human recombinant β2 adrenergic receptor (Homo sapiens, UniProt P07550); test: β2 adrenergic receptor inhibition assay; format: binding; details: read-out: β2 adrenergic % inh @1 μM
human recombinant β2 adrenergic receptor, sequence (P07550 whole entry): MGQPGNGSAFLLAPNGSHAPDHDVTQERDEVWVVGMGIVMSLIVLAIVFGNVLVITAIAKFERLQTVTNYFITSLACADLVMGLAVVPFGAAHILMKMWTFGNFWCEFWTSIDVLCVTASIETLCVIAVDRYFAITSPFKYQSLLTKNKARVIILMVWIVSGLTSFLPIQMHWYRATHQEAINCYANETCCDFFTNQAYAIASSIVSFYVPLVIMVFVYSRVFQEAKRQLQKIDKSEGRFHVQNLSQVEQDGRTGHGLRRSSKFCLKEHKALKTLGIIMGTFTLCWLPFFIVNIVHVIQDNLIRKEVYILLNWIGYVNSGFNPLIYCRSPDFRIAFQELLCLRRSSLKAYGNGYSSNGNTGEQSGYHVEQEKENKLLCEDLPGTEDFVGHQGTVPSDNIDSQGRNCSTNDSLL
Protocol: (§7) hEGR study and the M2 and the β2 receptor inhibition assay were performed as previously reported.
(§8) The new G-quadruplex ligands were designed in an attempt to obtain molecules with improved toxicological and on-target profiles, but maintaining the same favorable chemical and pharmacological features of the lead compound 1. With the aim of selecting the best variants, a step by step comparative analysis of their off- and on-target properties was performed. Initially the new molecules were tested for their ability to interact with and inhibit the human recombinant β2 adrenergic and M2 muscarinic receptors, and to reduce the hERG tail current in a patch clamp assay. […] Therefore, we might expect that the new ligands would impair cardiac functionality to a lesser extent than the lead molecule does.

[7] = test system: human colon cancer cell line HT-29; test: MTT proliferation assay, HT-29; format: cell-based; details: 96 hours
Protocol: as §1, §2, §3

[8] = biological target: T1, human recombinant M2 muscarinic receptor (Homo sapiens, UniProt P08172); test: M2 muscarinic receptor inhibition assay; format: binding; details: read-out: Muscarinic (M2) % inh @1 μM
T1 sequence (P08172 1-466): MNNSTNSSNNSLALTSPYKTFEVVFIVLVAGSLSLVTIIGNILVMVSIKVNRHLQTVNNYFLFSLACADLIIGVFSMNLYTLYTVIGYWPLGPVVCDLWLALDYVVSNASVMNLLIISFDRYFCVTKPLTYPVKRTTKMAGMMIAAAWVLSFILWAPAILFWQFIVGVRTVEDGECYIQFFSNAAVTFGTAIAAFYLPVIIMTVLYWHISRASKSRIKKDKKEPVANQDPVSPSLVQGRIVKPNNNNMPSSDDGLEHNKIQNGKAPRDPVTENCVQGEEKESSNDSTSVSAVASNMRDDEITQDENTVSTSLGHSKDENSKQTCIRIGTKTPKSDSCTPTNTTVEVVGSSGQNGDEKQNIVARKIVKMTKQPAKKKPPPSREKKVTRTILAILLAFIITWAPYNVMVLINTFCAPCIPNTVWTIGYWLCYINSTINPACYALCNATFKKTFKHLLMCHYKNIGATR
Protocol: as §7, §8

[9] = test system: h-Tel quadruplex DNA sequence 5'-d[AGGG(TTAGGG)3]-3'; test: SPR binding to quadruplex DNA; set-up: species or system human; details: for Quadruplex/duplex ratio: quadruplex vs duplex affinity
Protocol: as §4, §5

[10] = biological target: hERG (Homo sapiens, UniProt Q12809); test: hERG tail current inhibition in a patch clamp assay; format: cell-based; details: read-out: hERG % inh @10 μM
hERG, sequence (Q12809 whole entry): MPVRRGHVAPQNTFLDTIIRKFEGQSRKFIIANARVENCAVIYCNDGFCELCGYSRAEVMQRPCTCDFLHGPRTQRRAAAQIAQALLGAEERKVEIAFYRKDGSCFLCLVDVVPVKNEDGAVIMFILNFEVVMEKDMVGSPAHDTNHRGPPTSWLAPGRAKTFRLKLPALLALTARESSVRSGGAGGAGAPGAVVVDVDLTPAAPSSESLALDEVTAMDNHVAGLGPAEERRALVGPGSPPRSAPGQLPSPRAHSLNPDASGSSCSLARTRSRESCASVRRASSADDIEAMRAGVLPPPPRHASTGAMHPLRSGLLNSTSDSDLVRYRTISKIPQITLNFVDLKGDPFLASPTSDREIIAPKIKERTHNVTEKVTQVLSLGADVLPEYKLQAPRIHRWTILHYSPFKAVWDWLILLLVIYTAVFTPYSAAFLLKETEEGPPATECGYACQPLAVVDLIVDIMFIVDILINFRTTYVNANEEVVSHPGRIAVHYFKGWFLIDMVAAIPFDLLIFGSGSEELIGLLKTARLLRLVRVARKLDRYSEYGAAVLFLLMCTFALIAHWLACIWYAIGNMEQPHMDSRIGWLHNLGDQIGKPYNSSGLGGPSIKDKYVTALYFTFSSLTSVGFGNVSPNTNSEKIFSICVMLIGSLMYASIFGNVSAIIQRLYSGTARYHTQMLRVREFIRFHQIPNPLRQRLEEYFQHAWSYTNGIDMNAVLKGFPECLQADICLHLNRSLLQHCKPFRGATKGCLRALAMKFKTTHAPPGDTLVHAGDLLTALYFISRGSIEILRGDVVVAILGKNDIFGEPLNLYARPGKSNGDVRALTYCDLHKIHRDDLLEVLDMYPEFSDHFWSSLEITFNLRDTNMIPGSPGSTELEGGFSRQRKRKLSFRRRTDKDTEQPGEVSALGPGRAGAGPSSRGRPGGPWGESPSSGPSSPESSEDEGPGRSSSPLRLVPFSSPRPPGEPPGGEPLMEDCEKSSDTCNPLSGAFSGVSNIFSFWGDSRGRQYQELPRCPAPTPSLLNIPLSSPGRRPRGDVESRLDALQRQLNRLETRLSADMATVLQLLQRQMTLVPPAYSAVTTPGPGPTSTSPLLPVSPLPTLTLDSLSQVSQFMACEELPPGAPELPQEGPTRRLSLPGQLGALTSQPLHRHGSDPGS
Protocol: as §7, §8

[11] = test system: BJ-EHLT fibroblasts; test: γ-H2AX/TRF1 colocalization (TIFs, telomere uncapping); format: cell-based, human; details: for telomere dysfunction (TIF formation), in words / mean TIFs per nucleus: 24 hrs; for telomere dysfunction (TIF formation), in words: 0.1 and 0.5 μM
Protocol: as §6
Unfortunately, we were not able to test compounds 4, 5 and the 0,5 μM dose of 3 as they were fluorescent in both red and green channels. […] To ascertain whether γ-H2AX was phosphorylated in response to dysfunctional telomeres, double immunofluorescence experiments were processed by confocal microscopy. We observed that some of the γ-H2AX foci induced by G4-ligands colocalized with TRF1, a good marker for interphase telomeres, forming the so-called telomere dysfunction-induced foci (TIFs) (Figure 2B).
Figure 2 DNA damage activation at telomeres. BJ-EHLT fibroblasts were treated for 24 hrs with compound 1 and the indicated ligands at the doses 0.1 (light-grey bars) and 0.5 μM (dark-grey bars). Cells were processed for immunofluorescence (IF) using antibodies against γ-H2AX and TRF1 to mark DNA damage and telomeres respectively. Percentages of γ-H2AX- (A) and TIF-positive (B) treated and untreated cells are reported in the histograms. (C) Mean number of TIFs in the indicated samples. Cells with four or more γ-H2AX/TRF1 foci were scored as TIF positive. Error bars indicate the standard deviation. (D) Representative images of IF of untreated and 1, 3, 6 and 8-treated BJ-EHLT cells. Enlarged views of TIFs are reported on the right of the merged images. The images were acquired with a Leica Deconvolution microscope (magnification 100x). (E) Cells treated as in (A) were processed for IF of γ-H2AX and PCNA to mark replicating cells. Percentage of γ-H2AX+/PCNA- or γ-H2AX+/PCNA + nuclei in the indicated samples are reported in the histograms.

Compound | K [1] [M⁻¹] | K [2] [M⁻¹] | Duplex DNA affinity K [4] | inhibition at 1 µM [6] [%] | GI50 [7] [nM] | inhibition at 1 µM [8] [%] | Quadruplex DNA affinity K [9] | Quadruplex/duplex ratio [9] | Ratio PMX WI38/HT29 [3] | GI50 [3] [nM] | γ-H2AX foci formation relative to PCNA status [5] | inhibition at 10 µM [10] [%] | telomere dysfunction (TIF formation), in words [11] | mean TIFs per nucleus [11] | percentage of cells with more than four γ-H2AX/TRF1 colocalizations (TIF-positive) ([11]; 24 hrs, 0,1 μM) | percentage of cells with more than four γ-H2AX/TRF1 colocalizations (TIF-positive) ([11]; 24 hrs, 0,5 μM) [%]
CN1c2ccccc2-c2c3c1cccc3c1ccc(NC(=O)CCS(C)=O)cc1[n+]2C (stereo not drawn) | 2.3e+07 | < 100000 | – | – | – | – | – | – | – | – | – | – | – | – | – | –
CN1c2ccccc2-c2c3c1cccc3c1ccc(NC(=O)C3CC3)cc1[n+]2C [Compound 3] | 2.2e+07 | 100000 | 0,1 x10^6 M^−1 | 13 | 700 | 98 | 22,0 x10^6 M^−1 | 244,4 | 18,5 | 13000 | – | 74 | – | about seven | about 18% | –
CN1c2ccccc2-c2c3c1cccc3c1ccc(NC(=O)CC[S+](C)[O-])cc1[n+]2C (stereo not drawn) [Compound 5] | – | – | <0,1 x10^6 M^−1 | 10 | 1830 | 93 | 2.3e+07 M⁻¹ | >230 | – | > 30000 | – | 16 | – | – | – | –
C[n+]1c2c3c(cccc3c3ccccc31)Oc1ccccc1-2 [Compound 9] | 1.5e+06 | < 100000 | <0,1 x10^6 M^−1 | – | 210 | 24 | 1,5 x10^6 M^−1 | >15 | 24,3 | 5110 | – | 86 | did not cause significant telomere dysfunction | – | – | –
C[n+]1c2c3c(cccc3c3ccccc31)Sc1ccccc1-2 [Compound 10] | 1e+06 | < 100000 | <0,1 x10^6 M^−1 | – | 130 | 49 | 1,0 x10^6 M^−1 | >10 | 47,5 | 6170 | – | 95 | – | – | – | –

The next lines start with results.

K [1] [M⁻¹] | K [2] [M⁻¹] | Duplex DNA affinity K [4] | inhibition at 1 µM [6] [%] | GI50 [7] [nM] | inhibition at 1 µM [8] [%] | Quadruplex DNA affinity K [9] | Quadruplex/duplex ratio [9] | Compound | Ratio PMX WI38/HT29 [3] | GI50 [3] [nM] | γ-H2AX foci formation relative to PCNA status [5] | inhibition at 10 µM [10] [%] | telomere dysfunction (TIF formation), in words [11] | mean TIFs per nucleus [11] | percentage of cells with more than four γ-H2AX/TRF1 colocalizations (TIF-positive) ([11]; 24 hrs, 0,1 μM) | percentage of cells with more than four γ-H2AX/TRF1 colocalizations (TIF-positive) ([11]; 24 hrs, 0,5 μM) [%]
9e+06 | 600000 | 600000 M⁻¹ | 100 | 620 | 98 | 9e+06 M⁻¹ | – | Cc1cc2c3c([n+](C)c4ccc(F)cc4c3c1)-c1cc(F)ccc1N2C [Compound 1, 3,11-difluoro-6,8,13-trimethyl-8H-quino [4,3,2-kl] acridinium methosulfate, reference compound] | 11,6 | 7200 | almost exclusively restricted to PCNA-positive | – | – | – | – | –
4.2e+06 | 200000 | 0,2 x10^6 M^−1 | 11 | 100 | 98 | 4.2e+06 M⁻¹ | 21 | COC(=O)c1ccc2c(c1)c1cccc3c1c([n+]2C)-c1ccccc1N3C [Compound 2] | 31,1 | 3110 | – | 41 | did not cause significant telomere dysfunction | – | – | –
7.4e+06 | 1.1e+06 | 1,1 x10^6 M^−1 | 1 | 1630 | 65 | 7.4e+06 M⁻¹ | 6,7 | CN1c2ccccc2-c2c3c1cccc3c1ccc(CN)cc1[n+]2C [Compound 4] | 10,6 | 17300 | – | 15 | – | – | – | –
1.47e+07 | 700000 | 0,7 x10^6 M^−1 | 8 | 260 | 77 | 14,7 x10^6 M^−1 | 21 | CN1c2ccccc2-c2c3c1cccc3c1ccc(NC(=O)CO)cc1[n+]2C [Compound 6] | 85,7 | 22300 | – | 35 | – | about seven | – | ~40
2.93e+07 | 900000 | 0,9 x10^6 M^−1 | 0 | 280 | 92 | 29,3 x10^6 M^−1 | 32,6 | CN(C)CC#Cc1ccc2c3cccc4c3c([n+](C)c2c1)-c1ccccc1N4C [Compound 7] | 33,4 | 9360 | – | 37 | did not cause significant telomere dysfunction | – | – | –
